Assays:
BaF3 = assay: Antiproliferative activity against mouse BaF3 cells expressing EML4-ALK fusion incubated for 48 hrs by CCK8 assay; settings: baf3
NCI-H2228 = assay: Antiproliferative activity against human NCI-H2228 cells expressing EML4-ALK fusion incubated for 48 hrs by CCK8 assay; settings: nci-h2228
[1] = Antiproliferative activity against human NCI-H1975 cells expressing EGFR mutation incubated for 48 hrs by CCK8 assay; settings: nci-h1975
NCI-H522 = assay: Antiproliferative activity against human NCI-H522 cells expressing wild-type EGFR/ALK incubated for 48 hrs by CCK8 assay; settings: nci-h522
[2] = Antiproliferative activity against human HLF1 cells incubated for 48 hrs by CCK8 assay; assay type: toxicity, cell-based; settings: hlf1, 48 h
[3] = Antiproliferative activity against human THLE-3 cells incubated for 48 hrs by CCK8 assay; assay type: toxicity, cell-based; settings: thle-3, 48 h
HK-2 = assay: Antiproliferative activity against human HK-2 cells incubated for 48 hrs by CCK8 assay; assay type: toxicity, cell-based; settings: hk-2, 48 h
L02 = assay: Antiproliferative activity against human L02 cells incubated for 48 hrs by CCK8 assay; assay type: toxicity, cell-based; settings: l02, 48 h
NCI-H1975 [4] = assay: Induction of cell cycle arrest in human NCI-H1975 cells assessed as accumulation at G0/G1 phase at 1 nM incubated for 24 hrs by PI/RNase staining based flow cytometry (reference value: 50.19 %); assay type: functional
NCI-H1975 [5] = assay: Induction of cell cycle arrest in human NCI-H1975 cells assessed as accumulation at S phase at 1 nM incubated for 24 hrs by PI/RNase staining based flow cytometry (reference value: 17.1 %); assay type: functional
NCI-H1975 [6] = assay: Induction of cell cycle arrest in human NCI-H1975 cells assessed as accumulation at G2/M phase at 1 nM incubated for 24 hrs by PI/RNase staining based flow cytometry (reference value: 32.71 %); assay type: functional
NCI-H1975 [7] = assay: Induction of cell cycle arrest in human NCI-H1975 cells assessed as accumulation at G0/G1 phase at 5 nM incubated for 24 hrs by PI/RNase staining based flow cytometry (reference value: 50.19 %); assay type: functional
NCI-H1975 [8] = assay: Induction of cell cycle arrest in human NCI-H1975 cells assessed as accumulation at S phase at 5 nM incubated for 24 hrs by PI/RNase staining based flow cytometry (reference value: 17.1 %); assay type: functional
NCI-H1975 [9] = assay: Induction of cell cycle arrest in human NCI-H1975 cells assessed as accumulation at G2/M phase at 5 nM incubated for 24 hrs by PI/RNase staining based flow cytometry (reference value: 32.71 %); assay type: functional
NCI-H1975 [10] = assay: Induction of cell cycle arrest in human NCI-H1975 cells assessed as accumulation at G0/G1 phase at 10 nM incubated for 24 hrs by PI/RNase staining based flow cytometry (reference value: 50.19 %); assay type: functional
NCI-H1975 [11] = assay: Induction of cell cycle arrest in human NCI-H1975 cells assessed as accumulation at S phase at 10 nM incubated for 24 hrs by PI/RNase staining based flow cytometry (reference value: 17.1 %); assay type: functional
NCI-H1975 [12] = assay: Induction of cell cycle arrest in human NCI-H1975 cells assessed as accumulation at G2/M phase at 10 nM incubated for 24 hrs by PI/RNase staining based flow cytometry (reference value: 32.71 %); assay type: functional
NCI-H1975 [13] = assay: Induction of apoptosis in human NCI-H1975 cells assessed as viable cells at 1 nM incubated for 48 hrs by allo-Phycocyanin-Annexin V staining based flow cytometry (reference value: 93.6 %); assay type: functional; settings: read-out: Activity
NCI-H1975 [14] = assay: Induction of apoptosis in human NCI-H1975 cells assessed as early apoptotic cells at 1 nM incubated for 48 hrs by allo-Phycocyanin-Annexin V staining based flow cytometry (reference value: 2.27 %); assay type: functional
NCI-H1975 [15] = assay: Induction of apoptosis in human NCI-H1975 cells assessed as late apoptotic cells at 1 nM incubated for 48 hrs by allo-Phycocyanin-Annexin V staining based flow cytometry (reference value: 4.08 %); assay type: functional
NCI-H1975 [16] = assay: Induction of apoptosis in human NCI-H1975 cells assessed as necrotic cells at 1 nM incubated for 48 hrs by allo-Phycocyanin-Annexin V staining based flow cytometry (reference value: 0.031 %); assay type: functional
NCI-H1975 [17] = assay: Induction of apoptosis in human NCI-H1975 cells assessed as viable cells at 5 nM incubated for 48 hrs by allo-Phycocyanin-Annexin V staining based flow cytometry (reference value: 93.6 %); assay type: functional; settings: Homo sapiens, NCI-H1975, read-out: Activity
NCI-H1975 [18] = assay: Induction of apoptosis in human NCI-H1975 cells assessed as early apoptotic cells at 5 nM incubated for 48 hrs by allo-Phycocyanin-Annexin V staining based flow cytometry (reference value: 2.27 %); assay type: functional
NCI-H1975 [19] = assay: Induction of apoptosis in human NCI-H1975 cells assessed as late apoptotic cells at 5 nM incubated for 48 hrs by allo-Phycocyanin-Annexin V staining based flow cytometry (reference value: 4.08 %); assay type: functional
NCI-H1975 [20] = assay: Induction of apoptosis in human NCI-H1975 cells assessed as necrotic cells at 5 nM incubated for 48 hrs by allo-Phycocyanin-Annexin V staining based flow cytometry (reference value: 0.031 %); assay type: functional
NCI-H1975 [21] = assay: Induction of apoptosis in human NCI-H1975 cells assessed as viable cells at 10 nM incubated for 48 hrs by allo-Phycocyanin-Annexin V staining based flow cytometry (reference value: 93.6 %); assay type: functional; settings: read-out: Activity
NCI-H1975 [22] = assay: Induction of apoptosis in human NCI-H1975 cells assessed as early apoptotic cells at 10 nM incubated for 48 hrs by allo-Phycocyanin-Annexin V staining based flow cytometry (reference value: 2.27 %); assay type: functional
NCI-H1975 [23] = assay: Induction of apoptosis in human NCI-H1975 cells assessed as late apoptotic cells at 10 nM incubated for 48 hrs by allo-Phycocyanin-Annexin V staining based flow cytometry (reference value: 4.08 %); assay type: functional
NCI-H1975 [24] = assay: Induction of apoptosis in human NCI-H1975 cells assessed as necrotic cells at 10 nM incubated for 48 hrs by allo-Phycocyanin-Annexin V staining based flow cytometry (reference value: 0.031 %); assay type: functional
[25] = Cmax in Sprague-Dawley rat at 10 mg/kg, po; assay type: ADME, organism-based; settings: in vivo
[26] = Tmax in Sprague-Dawley rat at 10 mg/kg, po; assay type: ADME, organism-based; settings: in vivo
[27] = Half life in Sprague-Dawley rat at 10 mg/kg, po; assay type: ADME, organism-based; settings: in vivo
[28] = MRT (0 to t) in Sprague-Dawley rat at 10 mg/kg, po; assay type: ADME, organism-based; settings: in vivo
[29] = Oral bioavailability in Sprague-Dawley rat at 10 mg/kg; assay type: ADME, organism-based; settings: in vivo
[30] = Tmax in Sprague-Dawley rat at 1 mg/kg, iv; assay type: ADME, organism-based; settings: in vivo
[31] = Half life in Sprague-Dawley rat at 1 mg/kg, iv; assay type: ADME, organism-based; settings: in vivo
[32] = Apparent volume of distribution during terminal phase in Sprague-Dawley rat at 1 mg/kg, iv; assay type: ADME, organism-based; settings: in vivo
[33] = Apparent oral clearance in Sprague-Dawley rat at 1 mg/kg, iv; assay type: ADME, organism-based; settings: in vivo
NCI-H1975 [34] = assay: Antitumor activity against human NCI-H1975 cells xenografted in BALB/c-nu mouse at 5 mg/kg, po administered daily orally for 21 days relative to control; assay type: functional; settings: Mus musculus, NCI-H1975, po, 504 h, time 21 day, read-out: TGI
NCI-H1975 [35] = assay: Antitumor activity against human NCI-H1975 cells xenografted in BALB/c-nu mouse at 15 mg/kg, po administered daily orally for 21 days relative to control; assay type: functional; settings: Mus musculus, NCI-H1975, po, 504 h, time 21 day, read-out: TGI
NCI-H1975 [36] = assay: Antitumor activity against human NCI-H1975 cells xenografted in BALB/c-nu mouse at 30 mg/kg, po administered daily orally for 21 days relative to control; assay type: functional; settings: Mus musculus, NCI-H1975, po, 504 h, time 21 day, read-out: TGI

[2H]C([2H])([2H])C([2H])([2H])[S+]([O-])c1ccccc1Nc1nc(Nc2cc(NC(=O)C=C)c(N(C)CCN(C)C)cc2OC)ncc1Cl (single isomer, unassigned; (-))
IC50 (BaF3): 2.4 nM
IC50 (NCI-H2228): 21.5 nM
IC50 [1]: 1.08 nM
IC50 (NCI-H522): 1960 nM
Activity [2]: Non-toxic
Activity [3]: Non-toxic
Activity (HK-2): Non-toxic
Activity (L02): Non-toxic
Activity (NCI-H1975 [4]): 64.57%
Activity (NCI-H1975 [5]): 12.5%
Activity (NCI-H1975 [6]): 22.93%
Activity (NCI-H1975 [7]): 67.31%
Activity (NCI-H1975 [8]): 3.78%
Activity (NCI-H1975 [9]): 28.91%
Activity (NCI-H1975 [10]): 68.32%
Activity (NCI-H1975 [11]): 3.84%
Activity (NCI-H1975 [12]): 28.2%
viability at 0.001 µM (NCI-H1975 [13]): 75.4%
Activity (NCI-H1975 [14]): 16.6%
Activity (NCI-H1975 [15]): 7.98%
Activity (NCI-H1975 [16]): 0.071%
viability at 0.005 µM (NCI-H1975 [17]): 62.8%
Activity (NCI-H1975 [18]): 22.8%
Activity (NCI-H1975 [19]): 14.3%
Activity (NCI-H1975 [20]): 0.16%
viability at 0.01 µM (NCI-H1975 [21]): 46.8%
Activity (NCI-H1975 [22]): 32.5%
Activity (NCI-H1975 [23]): 20.5%
Activity (NCI-H1975 [24]): 0.22%
Cmax [25]: 169 ng/mL
Tmax [26]: 30 min
half-life [27]: 279 min
MRT last [28]: 3.57 h
bioavailability [29]: 44.1%
Tmax [30]: 1.98 min
half-life [31]: 63.4 min
Vz/F [32]: 5.9 L/kg
CL/F [33]: 63.7 mL/min/kg
inhibition in vivo at 5 mg/kg (NCI-H1975 [34]): 80.3%
inhibition in vivo at 15 mg/kg (NCI-H1975 [35]): 93.2%
inhibition in vivo at 30 mg/kg (NCI-H1975 [36]): 97.2%

Reference: ChEMBL document CHEMBL6078700, “Synthesis of novel deuterated EGFR/ALK dual-target inhibitors and their activity against non-small cell lung cancer” (Eur J Med Chem, 2025)
